Reference: the NIST ThermoML archive (doi:10.1016/j.jct.2012.06.033)
Numbers after ± are expanded uncertainties.

Columns and labels:
[1] = Liquid, Ebulliometric method (Recirculating still)
[2] = refractive index (Na D-line) (dimensionless); conditions: 298.15 K; 101.33 kPa; Liquid; Standard Abbe refractometry

SMILES | vapor or sublimation pressure ([1]; 343.15 K) [kPa] | vapor or sublimation pressure ([1]; 353.15 K) [kPa] | vapor or sublimation pressure ([1]; 363.15 K) [kPa] | refractive index [2]
ClCCCCCl [1,4-dichlorobutane] | 5.25 ± 0.03 | 8.2 ± 0.04 | 12.52 ± 0.05 | 1.4522 ± 0.0004
CC[N+](=O)[O-] [nitroethane] | 22.46 ± 0.13 | 32.84 ± 0.17 | 47.13 ± 0.22 | 1.3895 ± 0.0007
C[N+](=O)[O-] [nitromethane] | 34.93 ± 0.2 | 50.14 ± 0.25 | 70.81 ± 0.33 | 1.3793 ± 0.0007
